The conditions of data set [1]: uncoated feed powder.
The conditions of data set [2]: uncoated feed powder. The source holds these as a separate data set.
The nature of data set [3]: Screen (mesh) particle size analysis. Type of data set: physicochemical. The conditions noted are these: uncoated feed powder.

The structures appear in SMILES notation.

Turning to `Cc1c(C)c2c(c(C)c1OC(=O)CCC(=O)O)CC[C@@](C)(CCC[C@H](C)CCC[C@H](C)CCCC(C)C)O2` [succinate (vitamin E), tocopherol succinate], the moisture content in data set [1] stood at 0.06 % by weight. The loose bulk density in data set [2] is on record as 0.38 g/cc. In data set [3], the mean particle size result is listed as “about 200 mesh”.

Values taken from patent US20050214367A1, “Processes for making coated phytochemicals and tocopherols and products formed therefrom” (priority 2004, published 2005).
